The values that follow come from ChEMBL document CHEMBL1123023, “Syntheses and differentiating action of vitamin D endoperoxides. Singlet oxygen adducts of vitamin D derivatives in human myeloid leukemia cells (HL-60)” (1985).

Bounds are passed on as bounds.

The test system of one test is HL-60. The test can be described thus: Evaluated for its ability to induce phagocytosis in human myeloid leukemia cells (HL-60). In kind it is functional. Details: unit not given here.
Test [1] addresses T1, Vitamin D3 receptor (Homo sapiens) (UniProt P11473).
T1 sequence (whole entry): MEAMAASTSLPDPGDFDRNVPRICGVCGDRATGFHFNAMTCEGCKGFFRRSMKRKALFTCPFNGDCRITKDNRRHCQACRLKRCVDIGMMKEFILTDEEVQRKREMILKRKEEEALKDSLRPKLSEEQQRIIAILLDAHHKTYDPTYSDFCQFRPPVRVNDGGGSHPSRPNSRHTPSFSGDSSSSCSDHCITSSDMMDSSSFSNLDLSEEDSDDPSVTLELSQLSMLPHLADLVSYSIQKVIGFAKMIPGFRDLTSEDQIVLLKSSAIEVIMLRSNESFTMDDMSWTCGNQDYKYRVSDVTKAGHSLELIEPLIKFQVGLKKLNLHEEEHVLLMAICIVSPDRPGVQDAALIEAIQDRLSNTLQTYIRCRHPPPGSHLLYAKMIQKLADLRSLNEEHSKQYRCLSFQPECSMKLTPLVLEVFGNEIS
Description: Evaluated for its binding affinity towards cytosol receptor in human myeloid leukemia cells (HL-60), by using 1-alpha,25-(OH)2D3 as radioligand

For the molecule `C[C@H](CCCC(C)(C)O)[C@H]1CC[C@H]2/C(=C/[C@H]3OOCC4=C3C[C@@H](O)CC4)CCC[C@]12C`, the Phagocytosis in the test with HL-60 came out at 120. Moreover, the Binding activity in test [1] was 3000. Regarding `C[C@H](CCCC(C)(C)O)[C@H]1CC[C@H]2/C(=C/[C@@H]3OOCC4=C3C[C@@H](O)CC4)CCC[C@]12C`, in the test on HL-60, the Phagocytosis was 130. Moreover, in test [1], the Binding activity stood at 3000. Molecule `C=C1/C(=C\C=C2/CCC[C@]3(C)[C@@H]([C@H](C)CCCC(C)(C)O)CC[C@@H]23)C[C@@H](O)C[C@@H]1O` [CALCITRIOL] registered a Phagocytosis with HL-60 of 1. Consider `C[C@H](CCCC(C)(C)O)[C@H]1CC[C@H]2/C(=C/[C@H]3OOCC4=C3C[C@@H](O)C[C@@H]4O)CCC[C@]12C`, for which the Phagocytosis with HL-60 is listed as 130. Further, the Binding activity in test [1] was determined as 800.

The molecule `CC(C)[C@H](O)CC[C@@H](C)[C@H]1CC[C@H]2/C(=C/[C@H]3OOCC4=C3C[C@@H](O)C[C@@H]4O)CCC[C@]12C` displayed a Phagocytosis in the test with HL-60 of 150. This molecule also had a Binding activity in test [1] of 800. With `CC(C)CCC[C@@H](C)[C@H]1CC[C@H]2/C(=C/[C@@H]3OOCC4=C3C[C@@H](O)C[C@@H]4O)CCC[C@]12C`, the Phagocytosis with HL-60 was over 1000. The same molecule yielded a Binding activity in test [1] of over 10000. Molecule `C[C@H](CCC(F)(F)C(C)(C)O)[C@H]1CC[C@H]2/C(=C/[C@@H]3OOCC4=C3C[C@@H](O)CC4)CCC[C@]12C.C[C@H](CCC(F)(F)C(C)(C)O)[C@H]1CC[C@H]2/C(=C/[C@H]3OOCC4=C3C[C@@H](O)CC4)CCC[C@]12C` came in with a Phagocytosis in the test on HL-60 of 45. The molecule also yielded a Binding activity in test [1] of 1000. The corresponding values for `C=C1CC[C@H](O)C/C1=C/C=C1\CCC[C@]2(C)[C@@H]([C@H](C)CCC(F)(F)C(C)(C)O)CC[C@@H]12` are 200 and 1000. The corresponding values for `C=C1/C(=C\C=C2/CCC[C@]3(C)[C@@H]([C@H](C)CC[C@@H](O)C(C)C)CC[C@@H]23)C[C@@H](O)C[C@@H]1O` [TACALCITOL] are 1 and 1. For `CC(C)[C@H](O)CC[C@@H](C)[C@H]1CC[C@H]2/C(=C/[C@@H]3OOCC4=C3C[C@@H](O)C[C@@H]4O)CCC[C@]12C`, in the test with HL-60, the Phagocytosis was found to be 200. The molecule also registered a Binding activity in test [1] of 800. As for `C[C@H](CCCC(C)(C)O)[C@H]1CC[C@H]2/C(=C/[C@@H]3OOCC4=C3C[C@@H](O)C[C@@H]4O)CCC[C@]12C`, in the test on HL-60, the Phagocytosis came out at 200. This molecule registered a Binding activity in test [1] of 800. Molecule `C=C1/C(=C\C=C2/CCC[C@]3(C)[C@@H]([C@H](C)CCCC(C)C)CC[C@@H]23)C[C@@H](O)C[C@@H]1O` [ALFACALCIDOL] displayed a Phagocytosis with HL-60 of 320. The same molecule yielded a Binding activity in test [1] of 800. The corresponding values for `C[C@H](CCCC(O)(C(F)(F)F)C(F)(F)F)[C@H]1CC[C@H]2/C(=C/[C@@H]3OOCC4=C3C[C@@H](O)CC4)CCC[C@]12C.C[C@H](CCCC(O)(C(F)(F)F)C(F)(F)F)[C@H]1CC[C@H]2/C(=C/[C@H]3OOCC4=C3C[C@@H](O)CC4)CCC[C@]12C` are 30 and 1500.

Take `CC(C)CCC[C@@H](C)[C@H]1CC[C@H]2/C(=C/[C@H]3OOCC4=C3C[C@@H](O)C[C@@H]4O)CCC[C@]12C`: the Phagocytosis with HL-60 is recorded as over 1000. Moreover, in test [1], the Binding activity was over 10000.

For `C=C1CC[C@H](O)C/C1=C/C=C1\CCC[C@]2(C)[C@@H]([C@H](C)CCCC(O)(C(F)(F)F)C(F)(F)F)CC[C@@H]12`, the Phagocytosis in the test on HL-60 was 200. In test [1], the Binding activity worked out at 50. The corresponding values for `C=C1CC[C@H](O)C/C1=C/C=C1\CCC[C@]2(C)[C@@H]([C@H](C)CCCC(C)(C)O)CC[C@@H]12` [CALCIFEDIOL ANHYDROUS] are 320 and 600.
